For orientation: pIC50 means the IC50 on a negative log10 scale, so that one unit is a factor of ten.

Molecules are shown by their SMILES. pIC50: −log10 of the molar value. Bounds are passed on as bounds.

The first test has as its system MV-4-11 cells. Description: Cell Viability Assay in MV-4-11 Cells. The class given is cell-based. Particulars: Homo sapiens, MV4-11, 72 h. In short, it runs like this:
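Luminescent ATP read-out (CellTiter-Glo) after 72 h compound treatment of MV-4-11 leukaemia cells (7,000 per well, IMDM plus 10% FBS). Values expressed relative to DMSO control and derived by four-parameter non-linear regression.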
`Cn1cc(-c2ccc(C(=O)N(c3nccc4sc(-c5cnn(CC(N)=O)c5)cc34)[C@@H]3CCCNC3)c(F)c2)nn1` [Example 489, N-[2-[1-(2-amino-2-oxo-ethyl)pyrazol-4-yl]thieno[3,2-c]pyridin-4-yl]-2-fluoro-4-(1-methyltriazol-4-yl)-N-[(3R)-3-piperidyl]benzamide] had a pIC50 of under 5.00.

The test is the same for the next values; noted with them: Homo sapiens, MV4-11, 72 h, MV-4-11 cells, 72 h, Cell-Titer Glo; read-out: IC50.
Turning to `Cc1cc(F)cc2ccnc(N(C(=O)c3ccc(-c4cn(C)nn4)cc3F)[C@@H]3CCCNC3)c12` [Example 474, (R)-2-fluoro-N-(6-fluoro-8-methylisoquinolin-1-yl)-4-(1-methyl-1H-1,2,3-triazol-4-yl)-N-(piperidin-3-yl)benzamide], the pIC50 was 8.00.
`Cn1cc(-c2ccc(C(=O)N(c3nccc4sc(Br)cc34)[C@@H]3CCCNC3)cc2O)cn1` [Example 475, N-(2-bromothieno[3,2-c]pyridin-4-yl)-3-hydroxy-4-(1-methylpyrazol-4-yl)-N-[(3R)-3-piperidyl] benzamide]: the negative logarithm of the IC50 (pIC50) is 5.34.
For `Cn1cc(-c2ccc(C(=O)N(c3nccc4sc(C#CCCCO)cc34)[C@@H]3CCCNC3)cc2O)cn1` [Example 476, 3-hydroxy-N-[2-(5-hydroxypent-1-ynyl)thieno[3,2-c]pyridin-4-yl]-4-(1-methylpyrazol-4-yl)-N-[(3R)-3-piperidyl] benzamide], the negative-log IC50 (pIC50) is 6.66.
`Cn1cc(-c2ccc(C(=O)N(c3nccc4sc(C#N)cc34)[C@@H]3CCCNC3)c(F)c2)nn1` [Example 477, N-(2-cyanothieno [3,2-c]pyridin-4-yl)-2-fluoro-4-(1-methyltriazol-4-yl)-N-[(3R)-3-piperidyl] benzamide]: the pIC50 is 5.55.
Turning to `Cn1cc(-c2ccc(C(=O)N(c3nccc4sc(-c5ccnc(N)c5)cc34)[C@@H]3CCCNC3)c(F)c2)nn1` [Example 478, (R)—N-(2-(2-aminopyridin-4-yl)thieno[3,2-c]pyridin-4-yl)-2-fluoro-4-(1-methyl-1H-1,2,3-triazol-4-yl)-N-(piperidin-3-yl)benzamide], the pIC50 is 6.47.
For the molecule `Cn1cc(-c2ccc(C(=O)N(c3nccc4sc(C#CCO)cc34)[C@@H]3CCCNC3)c(F)c2)nn1` [Example 479, (R)-2-fluoro-N-(2-(3-hydroxyprop-1-yn-1-yl)thieno[3,2-c]pyridin-4-yl)-4-(1-methyl-1H-1,2,3-triazol-4-yl)-N-(piperidin-3-yl)benzamide], the negative-log IC50 (pIC50) is 5.49.
Consider `Cn1cc(-c2ccc(C(=O)N(c3nccc4sc(-c5cccc(C(N)=O)c5)cc34)[C@@H]3CCCNC3)c(F)c2)nn1` [Example 480, N-[2-(3-carbamoylphenyl)thieno [3,2-c]pyridin-4-yl]-2-fluoro-4-(1-methyltriazol-4-yl)-N-[(3R)-3-piperidyl] benzamide], for which the negative-log IC50 (pIC50) is 6.27.
For the molecule `Cn1cc(-c2ccc(C(=O)N(c3nccc4sc(-c5ccc(CO)s5)cc34)[C@@H]3CCCNC3)c(F)c2)nn1` [Example 481, (R)-2-fluoro-N-(2-(5-(hydroxymethyl)thiophen-2-yl)thieno[3,2-c]pyridin-4-yl)-4-(1-methyl-1H-1,2,3-triazol-4-yl)-N-(piperidin-3-yl)benzamide], the pIC50 is 6.57.
Turning to `Cn1cc(-c2ccc(C(=O)N(c3nccc4sc(-c5cnccn5)cc34)[C@@H]3CCCNC3)c(F)c2)nn1` [Example 482], the pIC50 was 6.06.
Take `Cc1ncc(-c2cc3c(N(C(=O)c4ccc(-c5cn(C)nn5)cc4F)[C@@H]4CCCNC4)nccc3s2)s1` [Example 483, (R)-2-fluoro-4-(1-methyl-1H-1,2,3-triazol-4-yl)-N-(2-(2-methylthiazol-5-yl)thieno[3,2-c]pyridin-4-yl)-N-(piperidin-3-yl)benzamide]: the pIC50 was 6.47.
As for `Cn1cc(-c2ccc(C(=O)N(c3nccc4sc(-c5ccnc(N)n5)cc34)[C@@H]3CCCNC3)c(F)c2)nn1` [Example 484, N-[2-(2-aminopyrimidin-4-yl)thieno[3,2-c]pyridin-4-yl]-2-fluoro-4-(1-methyltriazol-4-yl)-N-[(3R)-3-piperidyl]benzamide], the pIC50 is 6.03.
As for `Cn1cc(-c2ccc(C(=O)N(c3nccc4sc(-c5cnn(Cc6cccnc6)c5)cc34)[C@@H]3CCCNC3)c(F)c2)nn1` [Example 485, 2-fluoro-4-(1-methyltriazol-4-yl)-N-[(3R)-3-piperidyl]-N-[2-[1-(3-pyridylmethyl)pyrazol-4-yl]thieno [3,2-c]pyridin-4-yl] benzamide], the pIC50 was 6.01.
For the molecule `Cn1cc(-c2ccc(C(=O)N(c3nccc4sc(/C=C/C(N)=O)cc34)[C@@H]3CCCNC3)c(F)c2)nn1` [Example 486, N-[2-[(E)-3-amino-3-oxo-prop-1-enyl]thieno[3,2-c]pyridin-4-yl]-2-fluoro-4-(1-methyltriazol-4-yl)-N-[(3R)-3-piperidyl]benzamide], the negative-log IC50 (pIC50) was under 5.00.
On to `Cn1cc(-c2ccc(C(=O)N(c3nccc4sc(Cc5ccccc5)cc34)[C@@H]3CCCNC3)c(F)c2)nn1` [Example 487, N-(2-benzylthieno[3,2-c]pyridin-4-yl)-2-fluoro-4-(1-methyltriazol-4-yl)-N-[(3R)-3-piperidyl]benzamide], for which the pIC50 was 6.21.
On the same count and under the same terms, next, `Cn1cc(-c2ccc(C(=O)N(c3nccc4sc(Cc5cccnc5)cc34)[C@@H]3CCCNC3)c(F)c2)nn1` [Example 488, 2-fluoro-4-(1-methyltriazol-4-yl)-N-[(3R)-3-piperidyl]-N-[2-(3-pyridylmethyl)thieno[3,2-c]pyridin-4-yl]benzamide]: 6.19.
Turning to `Cn1cc(-c2ccc(C(=O)N(c3nccc4cc(-c5cccc(CO)c5)ccc34)[C@@H]3CCCNC3)c(F)c2)nn1` [Example 490, (R)-2-fluoro-N-(6-(3-(hydroxymethyl)phenyl)isoquinolin-1-yl)-4-(1-methyl-1H-1,2,3-triazol-4-yl)-N-(piperidin-3-yl)benzamide], the pIC50 was 6.52.
As for `Cn1cc(-c2ccc(C(=O)N(c3nccc4cc(-c5ccnc(N)c5)ccc34)[C@@H]3CCCNC3)c(F)c2)nn1` [Example 491, (R)—N-(6-(2-aminopyridin-4-yl)isoquinolin-1-yl)-2-fluoro-4-(1-methyl-1H-1,2,3-triazol-4-yl)-N-(piperidin-3-yl)benzamide], the pIC50 was 6.34.
Regarding `Cn1cc(-c2ccc(C(=O)N(c3nccc4cc(-c5cnn(CCO)c5)ccc34)[C@@H]3CCCNC3)c(F)c2)nn1` [Example 492, (R)-2-fluoro-N-(6-(1-(2-hydroxyethyl)-1H-pyrazol-4-yl)isoquinolin-1-yl)-4-(1-methyl-1H-1,2,3-triazol-4-yl)-N-(piperidin-3-yl)benzamide], the pIC50 was 6.06.
In the case of `Cn1cc(-c2ccc(C(=O)N(c3nccc4cc(-c5ccccc5O)ccc34)[C@@H]3CCCNC3)c(F)c2)nn1` [Example 493, (R)-2-fluoro-N-(6-(2-hydroxyphenyl)isoquinolin-1-yl)-4-(1-methyl-1H-1,2,3-triazol-4-yl)-N-(piperidin-3-yl)benzamide], the pIC50 is 6.28.
With `Cn1cc(-c2ccc(C(=O)N(c3nccc4cc(/C=C/C(=O)O)ccc34)[C@@H]3CCCNC3)c(F)c2)nn1` [Example 494, (R,E)-3-(1-(2-fluoro-4-(1-methyl-1H-1,2,3-triazol-4-yl)-N-(piperidin-3-yl)benzamido)isoquinolin-6-yl)acrylic acid], the pIC50 was under 5.00.
With `Cn1cc(-c2ccc(C(=O)N(c3nccc4cc(-c5cccc(O)c5)ccc34)[C@@H]3CCCNC3)c(F)c2)nn1` [Example 495, (R)-2-fluoro-N-(6-(3-hydroxyphenyl)isoquinolin-1-yl)-4-(1-methyl-1H-1,2,3-triazol-4-yl)-N-(piperidin-3-yl)benzamide], the pIC50 is 6.18.
Consider `Cn1cc(-c2ccc(C(=O)N(c3nccc4cc(/C=C/C(N)=O)ccc34)[C@@H]3CCCNC3)c(F)c2)nn1` [Example 496, (R,E)-N-(6-(3-amino-3-oxoprop-1-en-1-yl)isoquinolin-1-yl)-2-fluoro-4-(1-methyl-1H-1,2,3-triazol-4-yl)-N-(piperidin-3-yl)benzamide], for which the negative logarithm of the IC50 (pIC50) was 5.27.
The same measure, in the same setting: next, `Cc1cccc2ccnc(N(C(=O)N3CCCC(CCC(=O)Nc4ccncc4)C3)[C@@H]3CCCNC3)c12` (stereo partly drawn) [Example 497, N-(8-methylisoquinolin-1-yl)-3-(3-oxo-3-(pyridin-4-ylamino)propyl)-N—((R)-piperidin-3-yl)piperidine-1-carboxamide]: 5.70; `Cc1cccc2ccnc(N(C(=O)N3CCCC(CCC(=O)Nc4ccc5[nH]ncc5c4)C3)[C@@H]3CCCNC3)c12` (stereo partly drawn) [Example 498, 3-(3-((1H-indazol-5-yl)amino)-3-oxopropyl)-N-(8-methylisoquinolin-1-yl)-N—((R)-piperidin-3-yl)piperidine-1-carboxamide]: 5.70; `Cc1cccc2ccnc(N(C(=O)N3CCCC(CCC(=O)Nc4ccc5cn[nH]c5c4)C3)[C@@H]3CCCNC3)c12` (stereo partly drawn) [Example 499, 3-(3-((1H-indazol-6-yl)amino)-3-oxopropyl)-N-(8-methylisoquinolin-1-yl)-N—((R)-piperidin-3-yl)piperidine-1-carboxamide]: 5.77.
Regarding `O=C(O)/C=C/c1cc2c(N(C(=O)c3ccc(-n4nnc5cccnc54)cc3F)[C@@H]3CCCNC3)nccc2s1` [Example 500, (E)-3-[4-[[2-fluoro-4-(triazolo[4,5-b]pyridin-3-yl)benzoyl]-[(3R)-3-piperidyl]amino]thieno[3,2-c]pyridin-2-yl]prop-2-enoic acid], the pIC50 was under 5.00.
As for `CCOC(=O)/C=C/c1cc2c(N(C(=O)c3ccc(-n4nnc5cccnc54)cc3F)[C@@H]3CCCNC3)nccc2s1` [Example 501, ethyl (E)-3-[4-[[2-fluoro-4-(triazolo[4,5-b]pyridin-3-yl)benzoyl]-[(3R)-3-piperidyl]amino]thieno[3,2-c]pyridin-2-yl]prop-2-enoate], the pIC50 was 6.10.
As for `O=C(O)c1nc(-c2cc3c(N(C(=O)c4ccc(-n5nnc6cccnc65)cc4F)[C@@H]4CCCNC4)nccc3s2)cs1` [Example 502, 4-[4-[[2-fluoro-4-(triazolo[4,5-b]pyridin-3-yl)benzoyl]-[(3R)-3-piperidyl]amino]thieno[3,2-c]pyridin-2-yl]thiazole-2-carboxylic acid], the pIC50 is 5.68.

These data come from patent publication US20240400555A1 (Initial Therapeutics, Inc., priority 2023, published 2024).
